The numbers were not newly measured in patent US20060159622A1, “Pharmacodynamic assay for inhibitors of 11-beta-hydroxysteroid dehydrogenase activity in animal tissues” (priority 2003, published 2006), which cites them from elsewhere.

For this series, the system named is HSD. Particulars: normal human volunteers.

In the case of `CC1(C)[C@@H](OC(=O)CCC(=O)O)CC[C@]2(C)[C@H]3C(=O)C=C4[C@@H]5C[C@@](C)(C(=O)O)CC[C@]5(C)CC[C@@]4(C)[C@]3(C)CC[C@@H]12` [carbenoxolone], the insulin sensitivity entry is given as “increased insulin sensitivity”.
